Experimental data reported in US9879011B2, “Amorphous form of linagliptin and process for preparation thereof” (CADILA HEALTHCARE LIMITED, priority 2012, dated 2018).

Experiment: storage stability of amorphous form (polymorphic form by x-ray powder diffraction)
Format: physicochemical
Settings: amorphous form dried under vacuum at about 50° C. to 70° C.; ordinary stability conditions (75% RH at 40° C. or 60% RH at 25° C.); no change in polymorphic form by XRPD
Description: The obtained linagliptin may be dried under vacuum at about 50° C. to 70° C. for 6-12 hours to get amorphous form substantially free from residual solvents. Thus obtained amorphous linagliptin is stable under ordinary stability conditions at least for 3 months and doesn't change to crystalline form.
The stable amorphous form of linagliptin may be stored under nitrogen atmosphere and packed in a double polythene bag tied with a thread, keeping primary packing containing amorphous linagliptin inside a black color polyethylene bag containing oxygen busters and sealing it, placing above the double polyethylene bag inside a triple laminated bag optionally containing oxygen busters and sealing it, and placing the sealed triple laminated bag inside a closed high density polyethylene (HDPE) container and storing in controlled environment chamber at about 25° C. and/or 40° C.
The X-ray powder diffraction spectrum was measured under the following experimental conditions: • Instrument: X-Ray Diffractometer, D/Max-2200/PC Make: Rigaku, Japan. • X-Ray: Cu/40 kv/40 mA • Diverging: 10 • Scattering Slit: 10 • Receiving Slit: 0.15 mm • Monochromator RS: 0.8 mm • Counter: Scintillation Counter • Scan Mode: Continuous • Scan Speed: 3.0000/Min • Sampling Width: 0.020 • Scan Axes: Two Theta/Theta • Scan Range: 2.0000 to 40.0000 • Theta Offset: 0.0000

- stable under ordinary stability conditions, doesn't change to crystalline form: ≥ 3 months
SMILES: CC#CCn1c(N2CCC[C@@H](N)C2)nc2c1c(=O)n(Cc1nc(C)c3ccccc3n1)c(=O)n2C [amorphous linagliptin, 8-[(R)-3-aminopiperidin-1-yl]-7-(but-2-yn-1-yl)-3-methyl-1-[(4-methyl-quinazolin-2-yl)methyl]-3,7-dihydro-1H-purine-2,6-dione]
